Values joined by “and” are separate entries in the source; they are usually repeats but may differ in a detail not shown here. Equal values may be shown once. “Also recorded” adds a separate entry of the source. Some results are limits rather than exact numbers.

This is an account of results in paper PMC12147205, “Soybean Lectin Cross-Links Membranes by Binding Sulfatide in a Curvature-Dependent Manner” (Journal of Agricultural and Food Chemistry, 2025).

Test [1] deals with T1, soybean lectin (Glycine max, UniProt P05046).
T1 construct: from tissue; host or cells: soybean meal (Glycine max seed meal)
T1 sequence (P05046 33-285): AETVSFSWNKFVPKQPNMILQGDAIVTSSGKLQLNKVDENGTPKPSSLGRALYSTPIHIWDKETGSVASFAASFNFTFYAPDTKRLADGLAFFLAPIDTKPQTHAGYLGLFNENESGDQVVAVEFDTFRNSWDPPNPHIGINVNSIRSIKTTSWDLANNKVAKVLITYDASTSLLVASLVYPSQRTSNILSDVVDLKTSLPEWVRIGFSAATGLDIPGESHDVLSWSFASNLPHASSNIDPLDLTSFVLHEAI
Kind of test: Isothermal titration calorimetry of GalNAc and analogs binding to soybean lectin. To be noted: for Kd / KD: 50 mM HEPES, 20 mM CaCl2 pH 7, one set of sites model, N fixed to 4, NB = no binding detected (KD over 1–2 mM). The method, then: Isothermal titration calorimetry (ITC) measurements were performed in a buffer containing 50 mM HEPES and 20 mM CaCl2 (pH 7). […] Each experiment was carried out in duplicate.

Test [2] has as its target T1, soybean lectin. Kind of test: SPR of lectin binding to sulfatide liposomes immobilized on L1 sensor chip. To be noted: 0.4 μm liposomes, 10% sulfatide/90% DOPC; two-state reaction model; absence of GalNAc; read-out: KD (apparent), lectin to sulfatide liposomes. The method, then:
SPR data were collected using a BIAcore X100 instrument equipped with an L1 sensor chip (Cytiva) coated with 0.4 μm liposomes at room temperature. Liposomes contained 10% sulfatide and 90% DOPC, whereas liposomes without sulfatide were composed of 100% DOPC. All experiments were performed using a buffer consisting of 50 mM HEPES and 140 mM NaCl (pH 7.4). Pretreatment of the sensor chip was performed with 40 mM octyl β-D-glucopyranoside. Liposomes were immobilized onto the L1 sensor chip at a flow rate of 30 μL/min, achieving a typical loading of ∼5500 response units per sensor chip channel. Lectin was used as the analyte across the specified concentration range. […] Data were best fitted using a two-state reaction model, and the apparent K D values were estimated using BIAevaluation software, version 2.0 (Cytiva).

Test [3] addresses T1, soybean lectin. Kind of test: Lectin-mediated cross-linking of sulfatide-containing GUVs, confocal microscopy. To be noted: 7.5 μM lectin; GalNAc at 200 times the lectin concentration. The method, then:
Giant unilamellar vesicles (GUVs) were generated as described by Horger et al. Briefly, an agarose solution was prepared by dissolving 4 g of agarose in 100 mL of Milli-Q water. The solution was poured onto one side of a glass slide and allowed to dry. The glass slide was then placed on a hot plate set to 38 °C. A 30 μL stock solution of lipids (3.75 mg/mL) was prepared in a chloroform–methanol mixture, containing 10% sulfatides, 30% DOPC, 30% cholesterol, 28% DOPE, and 2% DOPE-F (GUV-containing sulfatide) or 33.3% DOPC, 33.3% cholesterol, 31.3% DOPE, and 2% DOPE-F (GUV-sulfatide free). This lipid mixture was spread over the agarose layer on the heated glass slide using another glass slide. The slide remained on the hot plate for a few minutes until the solvent evaporated. To remove residual solvent, the glass slide containing the agarose and lipid film was placed in a vacuum chamber for 20 min. GUVs were then generated by placing the prepared glass slide in a Petri dish and covering it with phosphate buffer saline. The GUV-lectin suspension was prepared with a final lectin concentration of 7.5 μM. […] Confocal microscopy was performed using a Nikon AXR point-scanning confocal system built around an inverted Ti2 Eclipse microscope. […] In some cases, a gamma adjustment of 0.9 was applied to enhance fluorescence localization differences within individual vesicles. […]

The target of the next test is porcine trypsin (Sus scrofa, UniProt P00761). As to the kind of experiment: Binding of soybean meal trypsin inhibitors to porcine trypsin (Table S2).
Sequence of porcine trypsin (P00761 9-231): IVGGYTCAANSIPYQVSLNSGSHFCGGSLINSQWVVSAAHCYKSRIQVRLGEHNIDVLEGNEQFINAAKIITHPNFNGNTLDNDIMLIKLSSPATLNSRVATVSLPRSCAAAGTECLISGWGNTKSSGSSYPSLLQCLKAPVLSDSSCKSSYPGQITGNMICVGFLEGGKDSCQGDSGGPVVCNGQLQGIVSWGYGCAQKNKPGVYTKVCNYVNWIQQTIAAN
Setting [4] is: ITC competition, lectin preincubated with sulfatide liposomes (10% sulfatide/90% DOPC).
The mark [5] stands for this setting: ITC competition, lectin preincubated with sulfatide-free liposomes (100% DOPC).
Setting [6] is: TI from soybean meal line 17Ti-0204.
Where [7] appears, read: TI from soybean meal line 17Ti-0242.
The mark [8] stands for this setting: TI from soybean meal line 17Ti-0332.
[9] abbreviates: TI from soybean meal line 17Ti-0534.
[10] abbreviates: TI from soybean meal line Glenn.

On to `CO[C@H]1O[C@H](CO)[C@H](O)[C@H](O)[C@H]1NC(C)=O` [MGalNAc, Methyl-N-acetyl-2-deoxy-α-D-galactosamine], for which the Kd on soybean lectin [1] (ITC, 25 °C, read-out: KD) is 73 µM and 73.1 µM. Moreover, at soybean lectin [1] (ITC, 25 °C, pH 7), the ΔG entry is recorded as “–5.7 ± 0 kcal/mol”, the ΔH result is given as “–10.7 ± 0.1 kcal/mol” and the “–TΔS” value is reported as 5.0 ± 0.1 kcal/mol.

Turning to `O=[N+]([O-])c1ccccc1OC1OC(CO)C(O)C(O)C1O` [NPGP, 2-Nitrophenyl-β-D-galactopyranoside], on soybean lectin [1] (ITC), the “weaker affinity relative to GalNAc” value is on record as approximately 10 fold. On soybean lectin [1] (ITC, 25 °C, pH 7), the ΔG entry was “–4.3 ± 0 kcal/mol”, the ΔH entry was “–9.8 ± 0.4 kcal/mol” and the “–TΔS” value came out at 5.5 ± 0.3 kcal/mol. On soybean lectin [1] (KD, ITC, 25 °C), this molecule returned a Kd of 789.5 ± 0.7 µM.

Regarding sulfatide, the Kd at soybean lectin [2] was determined as 0.264 ± 0.062 µM.

Consider `CC(=O)N[C@@H]1[C@@H](O)[C@@H](O)[C@@H](CO)O[C@H]1O` [GalNAc, N-acetyl-D-galactosamine], for which the ΔG entry is “–5.6 ± 0 kcal/mol” at soybean lectin [1] (setting [4]); “–5.6 ± 0 kcal/mol” on soybean lectin [1] (setting [5]); “–5.8 ± 0 kcal/mol” on soybean lectin [1] (ITC, 25 °C, pH 7). Moreover, the ΔH entry at soybean lectin [1] (setting [4]) and at soybean lectin [1] (setting [5]) was “–9.9 ± 0.2 kcal/mol” each time. The “–TΔS” value on soybean lectin [1] (setting [4]) is 4.3 ± 0.2 kcal/mol; on soybean lectin [1] (setting [5]) it was 4.3 ± 0.2 kcal/mol; on soybean lectin [1] (ITC, 25 °C, pH 7), 4.5 kcal/mol and 4.5 ± 0.1 kcal/mol. Moreover, the “effect on soybean lectin-mediated cross-linking of sulfatide-containing GUVs” value at soybean lectin [3] was “inhibited; also recorded: reduced”.

As for `O=[N+]([O-])c1ccc(O[C@H]2O[C@H](CO)[C@@H](O)[C@H](O)[C@@H]2O)c(Cl)c1` [CNMP, 2-chloro-4-nitrophenyl-α-D-mannopyranoside], at soybean lectin [1] (ITC, 25 °C), the KD result is “no detectable binding”. Also, at soybean lectin [1] (ITC, 25 °C, read-out: KD), the Kd is more than 1000 µM.

In the case of `O=[N+]([O-])c1ccc(O[C@H]2O[C@H](CO)[C@@H](O)[C@H](O)[C@@H]2O)cc1` [NPMP, 4-nitrophenyl-α-D-mannopyranoside], on soybean lectin [1] (ITC, 25 °C), the KD entry is recorded as “no detectable binding”. For the same molecule, the Kd at soybean lectin [1] (ITC, 25 °C, read-out: KD) was more than 1000 µM.

Consider `CC(=O)N[C@H]1[C@H]([C@H](O)[C@H](O)CO)O[C@@](OC[C@H]2O[C@@H](O[C@H]3[C@H](O)[C@@H](O)[C@H](O)O[C@@H]3CO)[C@H](O)[C@@H](O)[C@H]2O)(C(=O)O)C[C@@H]1O` [6-SL, 6′-Sialyl lactose], for which the KD entry on soybean lectin [1] (ITC, 25 °C) is given as “no detectable binding”. Besides, the Kd at soybean lectin [1] (ITC, 25 °C, read-out: KD) is more than 1000 µM.

Consider `CCCCCCCCO[C@H]1O[C@H](CO)[C@@H](O)[C@H](O)[C@@H]1O` [OMP, Octyl-α-D-mannopyranoside], for which the KD result at soybean lectin [1] (ITC, 25 °C) is on record as “no detectable binding”. Also, the Kd at soybean lectin [1] (ITC, 25 °C, read-out: KD) was more than 1000 µM.

B1: KTI: Kunitz trypsin inhibitor isolated from soybean meal (protein)
chain: DFVLDNEGNPLENGGTYYILSDITAFGGIRAAPTGNERCPLTVVQSRNELDKGIGTIISSPYRIRFIAEGHPLSLKFDSFAVIMLCVGIPTEWSVVEDLPEGPAVKIGENKDAMDGWFRLERVSDDEFNNYKLVFCPQQAEDDKCGDIGISIDHDDGTRRLVVSKNKPLVVQFQKLDKESL
modifications: Native protein purified from soybean meal
B1: the Kd in the test with porcine trypsin (setting [6]) turned out to be 9 ± 2 µM; with porcine trypsin (setting [7]), 2.4 ± 0.3 µM; with porcine trypsin (setting [8]), 1.2 ± 0.1 µM; with porcine trypsin (setting [9]) it was 2.4 ± 0.1 µM; with porcine trypsin (setting [10]), 1.1 ± 0.4 µM.

B2: BBTI: Birk and Bowman trypsin inhibitor isolated from soybean meal (protein)
chain: DDESSKPCCDQCACTKSNPPQCRCSDMRLNSCHSACKSCICALSYPAQCFCVDITDFCYEPCKPSEDDKEN
modifications: Native protein purified from soybean meal, probably a mixture of Bowman-Birk isoforms
As for B2, the Kd turned out to be 0.1 µM with porcine trypsin (setting [6]); 0.1 ± 0.1 µM in the test with porcine trypsin (setting [7]); 0.2 µM with porcine trypsin (setting [8]); 0.1 µM with porcine trypsin (setting [9]); 0.1 µM with porcine trypsin (setting [10]).
